Assay results published in patent US11752122B2 (OKLAHOMA MEDICAL RESEARCH FOUNDATION, priority 2018, dated 2023).

Tests used:
mouse model = settings: cited from earlier work
LDLR mice on HFD = settings: LDLR mice, very low concentration, preliminary unpublished data
Excerpt: Mice. Hypercholesterolemic mice deficient for low-density lipoprotein receptors (Ldlr−/−), which only express ApoB-100 (Ldlr−/−Apob100/100, LDLR), were obtained from Jackson Laboratories (B6; 129SLdlrtm1HerApobtm2Sgy/J, stock no. 003000). WT C57bl/6 mice were also obtained from the Jackson Laboratory (stock no. 000664) and served as controls. TGF-β1^platelet-KO-LDLR mice (Pf4Cre+Tgfb1f/f;Ldlr−/−Apob100/100;) and TGF-β1^flox-LDLR littermate controls (Tgfb1f/f;Ldlr−/−Apob100/100) were generated by crossing LDLR mice with Pf4Cre+;Tgfb1f/f mice, as shown in FIGS. 7A-B and Supplemental Table 5. […] The inventor crossed Tie2Cre mice (stock no. 008863, Jackson Laboratories) with tdTomato lox-stop-lox mice (stock no. 007909, Jackson Laboratories) to generate Tie2Cre;tdTomato mice that express tdTomato only under Cre activity. All mice were housed in a controlled environment (23±2° C.; 12 hours light/dark cycles) and fed either a chow diet (CD) (PicoLab® Rodent Diet 20, 5053) or a customized high fat diet (HFD) (Harlan Teklad, TD.9612102. containing 21% milk fat (MF), 1.25% Cholesterol) in powdered form in a glass jar with perforated metal strainer (DYETS, Braintree Scientific Inc.). The Oklahoma Medical Research Foundation's Institutional Animal Care and Usage Committee approved all procedures.
Experimental Design. A total of 118 LDLR (58 Males, 60 Females) and 20 WT mice (10 Males, 10 Females) were used for this study. Half of the mice (6 weeks old) were switched to HFD and maintained for up to 9 months. Progression and severity (mild/moderate/severe) of AS were monitored at 0, 3, 6 and 9 months by echocardiography using non-invasive ultrasound imaging techniques. Five mice per cage (total of 25 males, 15 females) were treated with 2% N-acetylcysteine (NAC) (Acros Organics, 160280010) in drinking water. NAC was prepared in reverse osmosis water and its pH was adjusted to 7.4 with NaOH. Water was replaced with a fresh solution every week.
Echocardiography. Mice were anesthetized with Isoflurane (3-5% inhalation) in an induction chamber. Mice that appeared to be sick due to severe stenosis or that were underweight were anesthetized using a lower isoflurane level to prevent adverse or lethal effects from the anesthetic. Once visibly anesthetized, isoflurane was reduced to 0.5%-2% and the mouse was moved from the chamber to a nose-cone on a heated platform set at 40° C. to maintain body temperature (35±2° C.). Heavier mice were maintained at higher isoflurane levels as they appeared less sensitive to its anesthetic effects. All four limbs were taped to physiological electrodes and a rectal temperature probe was inserted. Electrode gel was used to enhance the physiologic readings. To ensure accuracy of all echo measurements, physiological parameters were monitored and recordings were only taken if the heart rate was 430-550 beats per minute, respiration was 20-100 breaths per minute, and body temperature was close to 37° C. (35±2° C.).
Measurement of AS parameters using a modified view of ultrasound imaging. Echocardiography is the gold standard non-invasive method to measure AS in humans. However, the mouse heart rate is 10-times faster (500 to 600 beats per minute), making the acquisition of high-resolution images of the very thin non-diseased valves challenging. […] LVOT was measured from the long-axis view and was used to calculate AV pressure and normalize the cusp separation (Lindman et al., 2016; Meyer et al., 2012). This view was obtained by tilting the lower left corner of the platform downward by about 30° and angling the transducer up such that it interfaced with the chest cavity by about 45°.

[1] = system: ascending aortic constriction (AAC) model; experiment: Cardiac fibrosis in ascending aortic constriction (AAC) model; format: in vivo, mice; settings: WT C57Bl/6 mice, very low concentration, preliminary unpublished data
Excerpt: Ascending Aortic Constriction. Ascending aortic constriction was induced by controlled constriction of the ascending aorta as described previously 26. Briefly, mice were anesthetized with 1.5% isoflurane and the ascending aorta was surgically exposed by a mid-thorax incision. A 2 7-0 suture was placed around both the aorta and an adjacent 27-gauge (0.41 mm OD) needle proximal to the origin of the innominate artery. […] Mice were sacrificed and tissues collected 1 month after the surgery.

[2] = 2007 study; cited from earlier work

CC(=O)N[C@@H](CSN=O)C(=O)O [SNOAC, S-nitroso-N-acetylcysteine]
hypoxia-like response in gene expression (mouse model; in vitro and in vivo): induced a hypoxia-like response
blood pressure in the lungs and right ventricle of the heart (pulmonary artery hypertension) (mouse model; mice treated with acetylcysteine, metabolite SNOAC): increased

Cc1cccc(-c2nn3c(c2-c2ccnc4ccc(C(N)=O)cc24)CCC3)n1 [galunisertive]
AS progression (LDLR mice on HFD): halted AS progression
cardiac fibrosis induced by ascending aortic constriction [1]: inhibited cardiac fibrosis

CC(C)c1nc(N(C)S(C)(=O)=O)nc(-c2ccc(F)cc2)c1/C=C/[C@@H](O)C[C@@H](O)CC(=O)O [rosuvastatin]
aortic stenosis progression [2]: slowing of aortic stenosis
